# From patent US8148424B2, “Tocopherols, tocotrienols, other chroman and side chain derivatives and uses thereof” (Research Development Foundation, priority 1998, dated 2012)
# Where two headings read alike, the source gives them in different places.
# Legend:
# [1] = test system: human cancer cells from a wide variety of cell lineages; assay: Apoptosis induction in a battery of tumor cells; assay type: cell-based; conditions: breast, prostate, leukemia/lymphoid, cervical, ovarian, endometrial, colon, lung cell lines
# Procedure: (§1) Cells were cultured at 1.5×10^5 cells/well in 12 well plates. Cells were allowed to adhere overnight, then incubated with novel test compounds at 0.01, 0.1, 1, 5, 10 & 20 μg/mL for 1, 2 and 3 days. After treatment, cells (floating+trypsin released adherent cells) were pelleted, washed and stained with 2 μg/ml DAPI (4′,6-diamidine-2′-phenylindole dihydrochloride) in 100% methanol for 15 minutes at 37° C. and/or 3′-OH ends resulting from DNA fragmentation were detected with the TUNEL (terminal deoxynucleotidyl transferase-mediated dUTP-X 3′ nick end-labeling) technique, and then viewed using a Zeiss ICM 405 microscope. Cells whose nucleus contained clearly condensed or fragmented chromatin or stained for fragmented DNA in the TUNEL assay were scored as apoptotic. Data are presented as percent cells undergoing apoptosis.
# RL-95-2 = assay: Bioassay for apoptosis (apoptotic EC50); assay type: cell-based, human; conditions: Homo sapiens, RL95-2, RL-95-2; unit inferred
# Procedure: as §1
# MDA-MB-435 = assay: Bioassay for apoptosis (apoptotic EC50); assay type: cell-based, human
# Procedure: as §1
# PC-3 = assay: Bioassay for apoptosis (apoptotic EC50); assay type: cell-based, human; conditions: Homo sapiens, PC-3, PC-3; unit inferred
# Procedure: as §1
# MCF-7 = assay: Bioassay for apoptosis (apoptotic EC50); assay type: cell-based, human; conditions: for EC50: Homo sapiens, MCF7, MCF-7, unit inferred
# Procedure: as §1
# LnCaP = assay: Bioassay for apoptosis (apoptotic EC50); assay type: cell-based, human; conditions: for EC50: Homo sapiens, unit inferred
# Procedure: as §1
# C-170 = assay: Bioassay for apoptosis (apoptotic EC50); assay type: cell-based, human; conditions: for EC50: Homo sapiens, C170, C-170, unit inferred
# Procedure: as §1
# HL-60 = assay: Bioassay for apoptosis (apoptotic EC50); assay type: cell-based, human; conditions: for EC50: Homo sapiens, HL-60, HL-60, unit inferred
# Procedure: as §1
# MDA-MB-231 = assay: Bioassay for apoptosis (apoptotic EC50); assay type: cell-based, human; conditions: Homo sapiens, MDA-MB-231, MDA-MB-231; unit inferred
# Procedure: as §1
# ME-180 = assay: Bioassay for apoptosis (apoptotic EC50); assay type: cell-based, human; conditions: for EC50: Homo sapiens, ME-180, ME-180, unit inferred
# Procedure: as §1
# MCF-10A = assay: Bioassay for apoptosis (apoptotic EC50); assay type: cell-based; conditions: Homo sapiens, unit inferred
# Procedure: as §1
# HMEC = assay: Bioassay for apoptosis (apoptotic EC50); assay type: cell-based; conditions: Homo sapiens, unit inferred
# Procedure: as §1
# DU-145 = assay: Bioassay for apoptosis (apoptotic EC50); assay type: cell-based, human; conditions: for EC50: Homo sapiens, unit inferred
# Procedure: as §1
# A-549 = assay: Bioassay for apoptosis (apoptotic EC50); assay type: cell-based, human; conditions: for EC50: Homo sapiens, A549, unit inferred
# Procedure: as §1
# Jurkat = assay: Bioassay for apoptosis (apoptotic EC50); assay type: cell-based, human; conditions: for EC50: Homo sapiens, unit inferred
# Procedure: as §1
# T47D = assay: Bioassay for apoptosis (apoptotic EC50); assay type: cell-based; conditions: Homo sapiens, unit inferred
# Procedure: as §1
# HT-29 = assay: Bioassay for apoptosis (apoptotic EC50); assay type: cell-based, human; conditions: Homo sapiens, unit inferred
# Procedure: as §1
# [2] = test system: breast tumor cell line MDA-MB-435; assay: Bioassay for DNA synthesis arrest, naturally occurring vitamin E compounds; assay type: cell-based, human; conditions: Table 1
# Procedure: Table 1 provides tumor growth inhibitory properties of naturally occurring vitamin E compounds against the breast tumor cell line MDA-MB-435.
# To assay DNA synthesis, all cells were used at 2.5×10^5/ml. Cells were treated with each of the compounds at concentrations of 0.01, 0.1, 1, 5, 10 and 20 μg/mL and 200 μl of each treatment group were plated in quadruplicate in a 96 well culture plate (Corning, Corning N.Y.). Experiments were done in duplicate, one plate used for viability testing and the other plate for examination of ^3H-TdR uptake to monitor DNA synthesis. Plates were cultured for 48 hours at 37° C., 5% CO2. Eight hours prior to the end of incubation, ^3H-TdR was added to one of the duplicate plates and incubation continued for 8 hours.
# The cells were then harvested (trypsinization was required to harvest adherent cells), and isotope uptake was determined as counts per minute (cpm). For viability studies, at the end of the incubation, the cells were removed from the wells and viability checked by the Trypan Blue Exclusion method. Percent viability and percent DNA synthesis in comparison to untreated or vehicle treated cells of each treatment group were calculated.
# [3] = Homo sapiens, MDA-MB-435, MDA-MB-435, unit inferred, read-out: apoptotic EC50
Compound,EC50 (RL-95-2) [mg/L],EC50 (MDA-MB-435; [3]) [mg/L],EC50 (PC-3) [mg/L],EC50 (MCF-7) [mg/L],EC50 (LnCaP) [mg/L],EC50 (C-170) [mg/L],EC50 (HL-60) [mg/L],EC50 (MDA-MB-231) [mg/L],EC50 (ME-180) [mg/L],EC50 (HMEC) [mg/L],growth inhibitory (apoptotic inducing) properties specific for human cancer cells [1],EC50 (MCF-10A) [mg/L],further results
"Cc1cc(OCC(=O)O)cc2c1O[C@](C)(CCC[C@H](C)CCC[C@H](C)CCCC(C)C)CC2 [Compound 9, 2,8-dimethyl-(2R-(4R,8R,12-trimethyltridecyl)chroman-6-yloxy)acetic acid]",5 to 10,5 to 10,5 to 10,10 to 20,5 to 10,> 20,10 to 20,5 to 10,5 to 10,> 20,effective,> 20,
"Cc1c(C)c2c(c(C)c1OCC(=O)O)C=C[C@@](C)(CCC[C@H](C)CCC[C@H](C)CCCC(C)C)O2 [Compound 20, 2,5,7,8-tetramethyl-(2R-(4R,8R,12-trimethyltridecyl)chroman-3-ene-6-yloxy)acetic acid]",,10 to 20,5 to 10,5 to 10,5 to 10,,10,,1 to 5,,effective,> 20,EC50 (DU-145): 5 to 10 mg/L; EC50 (A-549): 20 to 30 mg/L; EC50 (Jurkat): 10 to 20 mg/L; EC50 (T47D): 5 to 10 mg/L
"CCCCCCC[C@]1(C)CCc2c(C)c(OCC(=O)O)c(C)c(C)c2O1 [Compound 23, 2,5,7,8-tetramethyl-(2R-(heptyl)chroman-6-yloxy)acetic acid]",,> 20,> 20,> 20,,,,,,,,> 20,EC50 (HT-29): > 20 mg/L; EC50 (DU-145): > 20 mg/L
"Cc1c(C)c2c(c(C)c1OCC(=O)O)CCC(C)(C)O2 [Compound 14, 2-(2,5,7,8-pentamethylchroman-6-yloxy)acetic acid]",> 20,> 20,> 20,> 20,> 20,> 20,> 20,> 20,> 20,> 20,,> 20,
Cc1c(C)c2c(c(C)c1OCCCN)CC[C@@](C)(CCC[C@H](C)CCCC(C)CCCC(C)C)O2.Cl (stereo partly drawn) [Compound 19],,,,,,,,,,,effective,,"apoptotic EC50 (MDA-MB-435; MDA-MB-435, unit not given, in µg/mL): 10-20; apoptotic EC50 (DU-145; unit not given, in µg/mL): 5-10; apoptotic EC50 (MCF-7; MCF-7, unit not given, in µg/mL): 10-20; apoptotic EC50 (LnCaP; unit not given, in µg/mL): 5-10; apoptotic EC50 (A-549; unit not given, in µg/mL): 20-30; apoptotic EC50 (C-170; C-170, unit not given, in µg/mL): 1-5; apoptotic EC50 (HL-60; HL-60, unit not given, in µg/mL): 10-20; apoptotic EC50 (Jurkat; unit not given, in µg/mL): 10-20; apoptotic EC50 (ME-180; ME-180, unit not given, in µg/mL): 1-5"
"CC(C)=CCC/C(C)=C/CC/C(C)=C/CC[C@]1(C)CCc2cc(O)cc(C)c2O1 [δ-tocotrienol, reference compound]",,,,,,,,,,,,,"EC50 [2]: 5 µM; EC50 (MDA-MB-435; MDA-MB-435, Table 1, read-out: EC50 for Apoptosis): 5 µM"

# Second part, led by results:
EC50 (RL-95-2) [mg/L],EC50 (MDA-MB-435; [3]) [mg/L],EC50 (PC-3) [mg/L],EC50 (MCF-7) [mg/L],EC50 (LnCaP) [mg/L],EC50 (C-170) [mg/L],EC50 (HL-60) [mg/L],EC50 (MDA-MB-231) [mg/L],EC50 (ME-180) [mg/L],EC50 (HMEC) [mg/L],Compound,growth inhibitory (apoptotic inducing) properties specific for human cancer cells [1],EC50 (MCF-10A) [mg/L],further results
> 20,> 20,> 20,> 20,> 20,> 20,> 20,> 20,> 20,> 20,"COC(=O)COc1c(C)c(C)c2c(c1C)CC[C@@](C)(CCC[C@H](C)CCC[C@H](C)CCCC(C)C)O2 [Compound 11, Methyl 2,5,7,8-tetramethyl-(2R-(4R,8R,12-trimethyltridecyl)chroman-6-yloxy)acetate]",,> 20,
,,,10 to 20,10 to 20,20 to 30,10 to 20,,20 to 30,,Cc1c(C)c2c(c(C)c1OCC(=O)O)CC[C@@](C)(CCCC(C)CCCC(C)CCCC(C)C)O2 (stereo partly drawn) [Compound 17],effective,> 20,EC50 (HT-29): > 20 mg/L; EC50 (A-549): > 20 mg/L; EC50 (Jurkat): 10 to 20 mg/L; EC50 (T47D): 10 to 20 mg/L
